# Reference: US10813929B2, “Treating cancer with ATR inhibitors” (VERTEX PHARMACEUTICALS INCORPORATED, priority 2011, dated 2020)
# How the values were obtained:
# [1] = test system: phosphorylation of Chk1 (Ser 345); assay: Western blot analysis of Chk1 inhibition; format: cell-based; settings: 1 μM VE-821; after gemcitabine (100 nM), radiation (6 Gy) or both; FIG. 1 panel A
# Experimental: Cells were treated with 100 nM gemcitabine for 1 h, 1 μM VE-821 was added 1 h later and cells were irradiated (6 Gy) 1 h after that. Drugs were left for the duration of the experiment and cells were lysed at 2 h post-irradiation and subjected to Western blot analysis. MiaPaCa-2 and PSN-1 cells were exposed to gemcitabine and/or 1 μM VE-821 drug 1 h prior to irradiation with a single dose of 6 Gy. Cells were lysed in RIPA buffer 2 h post-irradiation and subjected to SDS-PAGE electrophoresis and immunoblotting. Chemoluminescence (SuperSignal, Millipore) and film exposure was used to detect antibody binding. Exposed film was digitized and figures were assembled using Microsoft PowerPoint.
# [2] = test system: PSN-1, Panc-1, MiaPaCa-2 pancreatic cancer cell lines; assay: Cell viability assay (Alamar Blue) with irradiation, tumour cells; format: cell-based; settings: VE-821 for 96 h with or without 4 Gy; viability after 8 days; FIG. 1 panel B
# Experimental: PSN-1, Panc-1, MiaPaCa-2 pancreatic cancer cell lines and MRCS fibroblasts were treated with increasing concentrations of VE-821 for 96 h combined with or without 4 Gy radiation at 1 h after VE-821 addition. Cell viability was measured after 8 days and shown as normalized to DMSO-treated cells. MiaPaCa-2, PSN-1, Panc1 and MRCS cells (5×104) were plated in 96-well plates and after 4 h treated with increasing concentrations of VE-821 at 1 h before irradiation with a single dose of 6 Gy. Medium was replaced 96 h post-irradiation at which point viability was measured using the using the Alamar Blue assay (Resazurin substrate, SIGMA). Cells were allowed to proliferate and cell viability was again analyzed at day 8 for the different treatment conditions. Cell viability and surviving fraction were normalized to the untreated (control) group.
# [3] = test system: pancreatic cancer cells; assay: Cell cycle analysis by flow cytometry after irradiation; format: cell-based; settings: 1 μM VE-821 1 h prior to 6 Gy; FIG. 7 (hypoxic), FIG. 4
# Experimental: VE-821 (1 μM) was added 1 h prior to 6 Gy irradiation and left for the duration of the experiment. Cells were lifted and fixed at 12 h or 24 h after irradiation, stained with propidium iodide and analysed for cell cycle distribution by flow cytometry (n=3) Cells were pre-incubated under hypoxic (0.5% O2) conditions for 6 h and 1 μM VE-821 was added 1 h prior to irradiation (6 Gy). Cells were transferred to normoxia 1 h after irradiation and were lifted and fixed at 12 h or 24 h after irradiation, stained with propidium iodide and analysed for cell cycle distribution by flow cytometry (n=3). Cells growing in 6-well dishes were treated with 1 μM VE-821 drug 1 h prior to 6 Gy irradiation. Cells were incubated for 6 h before irradiation under oxia (21% O2) or hypoxia (0.5% O2) using tightly sealed chambers. At multiple time points, cells were lifted in trypsin and fixed in 70% ethanol and stored at 4° C. Cells were incubated with propidium iodide (50 μg/ml in PBS containing 200 μg/ml RNAse) for 1 h at room temperature and analysed by flow cytometry (FACSort, Becton Dickinson). Cell cycle phase was quantitated using ModFit Cell Cycle Analysis software.
# [4] = test system: MiaPaCa pancreatic cancer xenograft; assay: MiaPaCa pancreatic cancer xenograft model with ionizing radiation; format: in vivo; settings: FIG. 13
# [5] = test system: PSN-1 pancreatic cancer xenograft; assay: PSN-1 pancreatic cancer xenograft model with ionizing radiation; format: in vivo; settings: PSN-1 xenograft; FIGS. 14 and 15
# [6] = test system: panel of 35 human lung cancer cell lines; assay: Lung cancer cell screen, CellTiter-Glo cell viability assay; format: cell-based; settings: 96 hours
# Experimental: All cell lines were seeded in 30 μl of tissue culture medium containing 10% FBS into 384-well opaque-bottom assay plates. The seeding density was based on the logarithmic growth rate of each cell line. After 24 hours, compound stock solutions were added to each well to afford a matrix consisting of 5 concentrations for VE-822 and 6 concentrations for chemotoxics. Each well contains either, agent alone or a combination of both agents. The final concentration range for VE-822 was 25 nM-2 μM. The concentration ranges for the chemotoxics were as follows: Etoposide, 10 nM-10 μM; Gemcitabine, 0.16 nM-160 nM; Cisplatin, 20 nM-20 μM; Oxaliplatin, 40 nM-40 μM; Irinotecan (SN-38), 0.12 nM-120 nM. The cells were then incubated for 96 hours at 37° C. in an atmosphere of 5% CO2 and 95% humidity.
# This assay measures the number of viable cells in a culture based on the quantitation of ATP, which is present in metabolically active cells.
# CellTiter-Glo Reagent (Promega, Madison, Wis., USA) was prepared according to the manufacturer's instructions and added 96 hours after compound addition (25 μl/well) to measure cell viability. Luminescence signal was measured with the PHERAStarFS (BMG Labtech, Cary, N.C., USA) automated plate reader. […]
# Raw luminescence CellTiter-Glo (CTG) values were normalized to the mean CTG value for the negative control DMSO-treated samples on each assay plate. […]
SMILES,phosphorylation of Chk1 (Ser 345) [1],radiosensitisation of pancreatic tumour cells (cell viability) [2],damage-induced cell cycle checkpoints [3],antitumor effects of ionizing radiation (tumor volume over time) [4],antitumor effects of ionizing radiation (tumor volume over time) [5],"synergy with chemotoxics across lung cancer cell lines ([6]; maximum shift in IC50 of each chemotoxic, FIG. 16)","synergy (shift in IC50 of chemotoxic) in lung cancer cell lines ([6]; with cisplatin, etoposide, gemcitabine, oxaplatin and irinotecan, FIG. 17)"
CS(=O)(=O)c1ccc(-c2cnc(N)c(C(=O)Nc3ccccc3)n2)cc1 [VE-821],inhibits phosphorylation of Chk1 (Ser 345),radiosensitises pancreatic tumour cells,disrupts damage-induced cell cycle checkpoints,,,,
CNCc1ccc(-c2cc(-c3nc(-c4ccc(S(=O)(=O)C(C)C)cc4)cnc3N)on2)cc1 [VE-822],,,,enhances the antitumor effects of ionizing radiation,enhances the antitumor effects of ionizing radiation,Synergizes with Chemotoxics,greater than 3 fold
